# Patent publication US20120270929A1, “MODULATION OF TTC39 EXPRESSION TO INCREASE HDL” (ISIS Pharmaceuticals, Inc., priority 2009, published 2012)
# Experiments:
# Assay type in all cases: in vivo, mouse
# [1] = Plasma cholesterol and triglycerides in LDLr-/- mice; conditions: 50 mg/kg/week
# Procedure: The LDLr knockout mice model is a model for familial hypercholesterolemia developed by Ishibashi et al (J Clin Invest 1993; 92: 883-893). On a normal chow diet, the mice have an average total cholesterol of 250 mg/dL due to increases in LDL and VLDL cholesterol. This model is therefore highly susceptible to atherosclerosis (Ishibashi et al Proc Natl Acad Sci USA 1994; 91: 4431-4435).
# (§1) Four groups of five male mice each were injected with a total of 1.5, 5, 15, or 50 mg/kg/week of ISIS 447118 for 6 weeks. A group of five mice was injected with a total of 50 mg/kg/week of control oligonucleotide ISIS 141923 ([…], designated herein as SEQ ID NO: 112, which has no known murine target) for 6 weeks. A control group of five mice was injected with phosphate buffered saline (PBS) twice a week for 6 weeks. Plasma samples were obtained before the start of treatment, at week 3 and at week 6. At the end of the treatment period, the mice were euthanized. Plasma and tissue samples were obtained for further analysis.
# To investigate the effect of inhibition of TTC39B on triglycerides and cholesterol levels in the plasma, samples were collected on weeks 0, 3, and 6, and total plasma cholesterol, LDL cholesterol, HDL cholesterol, and triglycerides were analyzed on an Olympus AU400e Analyzer.
# [2] = system: Apolipoprotein A-IV (ApoA4) mRNA; experiment: PCR microarray analysis of liver, LDLr-/- mice: ApoA4; conditions: 50 mg/kg, 6 weeks
# Procedure: as §1
# (§2) Liver samples from the mice groups were analyzed using a commercial kit for PCR microarray analysis (SA Biosciences Corp., MD), according to the manufacturer's instructions. Genes involved in lipoprotein and cholesterol metabolism were compared with the PBS control.
# [3] = system: Low density lipoprotein receptor (Ldlr) mRNA; experiment: PCR microarray analysis of liver, LDLr-/- mice: Ldlr; conditions: 50 mg/kg, 6 weeks
# Procedure: as §1, §2
# [4] = system: Oxysterol binding protein-like 5 (Osbpl5) mRNA; experiment: PCR microarray analysis of liver, LDLr-/- mice: Osbpl5; conditions: 50 mg/kg, 6 weeks
# Procedure: as §1, §2
# [5] = system: Sterol O-acyltransferase 2 (Soat2) mRNA; experiment: PCR microarray analysis of liver, LDLr-/- mice: Soat2; conditions: 50 mg/kg, 6 weeks
# Procedure: as §1, §2
# Stabilin 1 (Stab1) mRNA = experiment: PCR microarray analysis of liver, LDLr-/- mice: Stab1; conditions: 50 mg/kg, 6 weeks
# Procedure: as §1, §2
# [6] = system: Farnesyl diphosphate synthetase (Fdps) mRNA; experiment: PCR microarray analysis of liver, LDLr-/- mice: Fdps; conditions: 50 mg/kg, 6 weeks
# Procedure: as §1, §2
# [7] = system: Insulin induced gene 1 (Insig1) mRNA; experiment: PCR microarray analysis of liver, LDLr-/- mice: Insig1; conditions: 50 mg/kg, 6 weeks
# Procedure: as §1, §2
# [8] = system: Mevalonate (diphospho) decarboxylase (Mvd) mRNA; experiment: PCR microarray analysis of liver, LDLr-/- mice: Mvd; conditions: 50 mg/kg, 6 weeks
# Procedure: as §1, §2
# [9] = system: Proprotein convertase subtilisin/kexin type 9 (Pcsk9) mRNA; experiment: PCR microarray analysis of liver, LDLr-/- mice: Pcsk9; conditions: 50 mg/kg, 6 weeks
# Procedure: as §1, §2
sequence,measurement,setting,value
"CCTTCCCTGAAGGTTCCTCC (chemistry not given here) [ISIS 141923, reference compound]",HDL cholesterol % increase on week 6 (% change over baseline),[1],43%
same,HDL cholesterol levels,[1]; Week 0 (before treatment),76 mg/dL
same,LDL cholesterol levels,[1]; Week 0 (before treatment),100 mg/dL
same,total cholesterol levels,[1]; Week 0 (before treatment),206 mg/dL
same,triglyceride levels,[1]; Week 0 (before treatment),97 mg/dL
same,HDL cholesterol levels,[1]; Week 3,78 mg/dL
same,LDL cholesterol levels,[1]; Week 3,100 mg/dL
same,total cholesterol levels,[1]; Week 3,204 mg/dL
same,triglyceride levels,[1]; Week 3,116 mg/dL
same,HDL cholesterol levels,[1]; Week 6,108 mg/dL
same,LDL cholesterol levels,[1]; Week 6,112 mg/dL
same,total cholesterol levels,[1]; Week 6,227 mg/dL
same,triglyceride levels,[1]; Week 6,143 mg/dL
same,ApoA4 fold increase/decrease relative to PBS group,[2],0.87 fold
same,Ldlr fold increase/decrease relative to PBS group,[3],1.36 fold
same,Osbpl5 fold increase/decrease relative to PBS group,[4],1.21 fold
same,Soat2 fold increase/decrease relative to PBS group,[5],0.95 fold
same,Stab1 fold increase/decrease relative to PBS group,Stabilin 1 (Stab1) mRNA,1.12 fold
same,Fdps fold increase/decrease relative to PBS group,[6],1.21 fold
same,Insig1 fold increase/decrease relative to PBS group,[7],1.13 fold
same,Mvd fold increase/decrease relative to PBS group,[8],1.25 fold
same,Pcsk9 fold increase/decrease relative to PBS group,[9],1.09 fold
